This passage reports Ki results from BindingDB's records for doi:10.1007/pl00005288 (King'S College London, 1998).

Structures are written as SMILES.

Test [1] concerns the target T1, Melatonin receptor type 1C (Xenopus laevis, UniProt P49219).
T1 sequence (P49219 whole entry): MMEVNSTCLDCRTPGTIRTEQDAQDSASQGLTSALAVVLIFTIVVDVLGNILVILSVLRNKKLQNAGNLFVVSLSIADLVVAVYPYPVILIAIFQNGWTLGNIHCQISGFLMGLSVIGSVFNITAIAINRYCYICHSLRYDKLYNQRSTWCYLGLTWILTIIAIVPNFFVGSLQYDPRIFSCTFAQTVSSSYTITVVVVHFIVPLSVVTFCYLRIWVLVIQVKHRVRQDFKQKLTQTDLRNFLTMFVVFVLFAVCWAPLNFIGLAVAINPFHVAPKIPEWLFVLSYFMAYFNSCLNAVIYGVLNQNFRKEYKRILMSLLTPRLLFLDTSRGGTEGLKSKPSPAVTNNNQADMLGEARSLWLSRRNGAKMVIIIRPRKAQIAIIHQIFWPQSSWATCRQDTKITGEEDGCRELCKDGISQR

In test [2] the target is T2, Melatonin receptor type 1B (Homo sapiens, UniProt P49286).
T2 sequence (P49286 whole entry): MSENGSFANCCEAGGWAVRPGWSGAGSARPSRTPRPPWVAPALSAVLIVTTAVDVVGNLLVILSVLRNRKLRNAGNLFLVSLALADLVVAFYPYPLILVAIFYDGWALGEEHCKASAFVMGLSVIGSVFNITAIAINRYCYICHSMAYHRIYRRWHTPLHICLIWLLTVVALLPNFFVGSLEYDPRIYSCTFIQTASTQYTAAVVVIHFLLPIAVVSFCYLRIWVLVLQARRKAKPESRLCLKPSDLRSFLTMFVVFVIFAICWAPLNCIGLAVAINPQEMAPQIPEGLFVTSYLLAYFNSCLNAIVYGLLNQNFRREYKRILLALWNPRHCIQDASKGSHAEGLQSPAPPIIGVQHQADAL

In test [3] the target is Melatonin receptor type 1A (Homo sapiens, UniProt P48039).
Test [4] addresses T3, Melatonin receptor type 1B (Gallus gallus, UniProt P51050).
T3 sequence (P51050 whole entry): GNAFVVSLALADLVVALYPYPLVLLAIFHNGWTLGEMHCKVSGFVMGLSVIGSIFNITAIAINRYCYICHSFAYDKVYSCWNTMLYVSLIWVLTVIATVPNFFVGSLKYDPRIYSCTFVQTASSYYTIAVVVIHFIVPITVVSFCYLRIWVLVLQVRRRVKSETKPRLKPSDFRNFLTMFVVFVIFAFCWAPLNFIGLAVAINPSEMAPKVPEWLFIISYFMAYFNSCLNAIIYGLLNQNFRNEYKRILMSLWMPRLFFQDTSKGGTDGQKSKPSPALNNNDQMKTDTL

Chain of Melatonin receptor type 1A (P48039 whole entry): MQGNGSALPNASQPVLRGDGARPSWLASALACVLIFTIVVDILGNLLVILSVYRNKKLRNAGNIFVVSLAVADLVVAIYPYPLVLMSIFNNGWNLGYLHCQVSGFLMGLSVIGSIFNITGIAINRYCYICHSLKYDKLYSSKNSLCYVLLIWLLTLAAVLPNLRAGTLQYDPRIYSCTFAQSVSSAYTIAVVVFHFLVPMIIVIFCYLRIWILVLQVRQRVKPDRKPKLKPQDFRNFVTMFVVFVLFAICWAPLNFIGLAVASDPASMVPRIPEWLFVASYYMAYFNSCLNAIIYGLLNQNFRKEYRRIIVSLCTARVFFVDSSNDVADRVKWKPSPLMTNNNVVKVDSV

With `CC(=O)NCCc1c(Cc2ccccc2)[nH]c2ccccc12` [CAS_117946-91-5], the Ki (usually the dissociation constant of the complex between target and ligand, obtained from inhibition or displacement) in test [1] is 2040 nM; in test [2] it was 26.9 nM; in test [3] it was 513 nM; in test [4], 1740 nM.

In the case of `CCCCCC(=O)NCCc1c(Cc2ccccc2)[nH]c2ccc(OC)cc12` [Luzindole,5-MeOT-N-hexanyl], the Ki in test [1] was 1380 nM; in test [2] it was 324 nM; in test [3], 339 nM; in test [4] it was 776 nM.

Turning to `CCCC(=O)NCCc1c(Cc2ccccc2)[nH]c2ccccc12` [Luzindole,N-butanoyl], the Ki in test [1] was 3800 nM; in test [2], 1320 nM; in test [3] it was 3020 nM; in test [4] it was > 10000 nM.

Regarding `CCCCCC(=O)NCCc1c(Cc2ccccc2)[nH]c2ccccc12` [Luzindole,N-hexanoyl], the Ki amounted to 5750 nM in test [1], 7080 nM in test [2], 5500 nM in test [3] and 6460 nM in test [4].

For `CCCCC(=O)NCCc1c(Cc2ccccc2)[nH]c2ccccc12` [Luzindole,N-pentanoyl], the Ki in test [1] is 2140 nM; in test [2], 9.33 nM; in test [3], 832 nM; in test [4] it was 933 nM.

Take `CCC(=O)NCCc1c(Cc2ccccc2)[nH]c2ccccc12` [Luzindole,N-propanoyl]: the Ki came to 3160 nM in test [1], 22.9 nM in test [2], 776 nM in test [3] and 1950 nM in test [4].
